Data on 1 molecule can be found in US20250134952A1, “METHODS FOR IMPROVING THE EFFICACY OF HDAC INHIBITOR THERAPY AND PREDICTING THE RESPONSE TO TREATMENT WITH HDAC INHIBITOR” (INSTITUT NATIONAL DE LA SANTÉ ET DE LA RECHERCHE MÉDICALE, priority 2021, published 2025).

This assay concerns chromatin remodeling (pericentromeric heterochromatin). The experiment in a line: Chromatin remodeling with G9a inhibitor, effect of Tau (data not shown). It is filed as cell-based.

For the molecule `COc1cc2nc(N3CCCN(C)CC3)nc(NC3CCN(Cc4ccccc4)CC3)c2cc1OC` [BIX 01294], the “effect of Tau in preventing chromatin remodeling, compared with trichostatin A” value is reported as “same results”.
